This passage reports IC50 results from BindingDB's records for doi:10.1016/j.bmcl.2010.12.109 (Ono Pharmaceutical, 2011).

Structures can show the parent of a compound that is named as a salt.

The experiment can be described thus: Antagonist activity at human CCR5 expressed in HOS cells assessed as inhibition of cell fusion with HIV gp120 expressing HEK293 cells by LTR luciferase assay.

As to `CCCCN1C(=O)[C@@H]([C@H](O)C(C)C)NC(=O)C12CCN(Cc1ccc(Oc3ccccc3)cc1)CC2` [(R)-1-butyl-3-((R)-1-hydroxy-2-methyl-propyl)-9-(4-phenoxy-benzyl)-1,4,9-triaza-spiro[5.5]undecane-2,5-dione hydrochloride], the IC50 is 229 nM.
Take `CCCCN1C(=O)C(CC(C)C)NC(=O)C12CCN(Cc1ccc(Oc3ccccc3)cc1)CC2` (stereo not drawn) [rac-1-Butyl-3-isobutyl-9-(4-phenoxybenzyl)-1,4,9-triazaspiro[5.5]undecane-2,5-dione hydrochloride]: the IC50 came to 851 nM.

Usually IC50 stands for the concentration at which inhibition is half-maximal.
